Drawing on patent EP2036888A1, “Naphthyl-substituted sulfonamides” (Laboratorios del Dr. Esteve S.A., priority 2007, dated 2009), this text covers Ki and inhibition for 20 compounds.

This test deals with 5HT6 human recombinant receptor (Homo sapiens, UniProt P50406). Put plainly: Binding with serotonin receptor 5HT6 ([3H]-LSD radioligand displacement, HEK-293 cell membranes). To be noted: for inhibition at 0.01 µM: read-out: Binding % Inhibition 10 nM; for inhibition at 0.1 µM: read-out: Binding % Inhibition 100 nM. For orientation: In a radioligand displacement assay an active substance lowers the binding of a labelled ligand.
Sequence of 5HT6 human recombinant receptor (P50406 whole entry): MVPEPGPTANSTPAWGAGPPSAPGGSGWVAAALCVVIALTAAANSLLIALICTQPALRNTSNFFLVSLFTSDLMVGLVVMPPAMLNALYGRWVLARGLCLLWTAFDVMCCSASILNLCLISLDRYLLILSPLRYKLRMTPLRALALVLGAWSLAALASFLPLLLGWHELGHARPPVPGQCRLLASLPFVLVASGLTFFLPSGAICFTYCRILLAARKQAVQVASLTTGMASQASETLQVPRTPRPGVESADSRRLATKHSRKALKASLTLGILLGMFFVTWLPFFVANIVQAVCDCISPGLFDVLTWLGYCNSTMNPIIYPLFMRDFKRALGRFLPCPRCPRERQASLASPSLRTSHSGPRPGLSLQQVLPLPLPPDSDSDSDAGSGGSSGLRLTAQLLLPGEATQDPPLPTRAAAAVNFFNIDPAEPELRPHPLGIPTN

A word on the Ki: it is the dissociation constant of the complex between target and ligand, obtained from inhibition or displacement. In general, inhibition refers to the share of the control response that was lost under treatment. With `CN(C)CCc1c[nH]c2ccc(N(C)S(=O)(=O)c3cccc4c(Cl)cccc34)cc12` [Example 12, 5-chloro-N-(3-(2-(dimethylamino)ethyl)-1H-indol-5-yl)-N-methylnaphthalene-1-sulfonamide], the Ki worked out at 48.7 ± 6.9 nM, the inhibition at 0.01 µM is 51.6% and the inhibition at 0.1 µM turned out to be 85.4%.

Take `CN(C)CCc1c[nH]c2ccc(NS(=O)(=O)c3ccc(F)c4ccccc34)cc12` [Example 7, N-(3-(2-(dimethylamino)ethyl)-1H-indol-5-yl)-4-fluoronaphthalene-1-sulfonamide]: the Ki stood at 5.2 nM, the inhibition at 0.01 µM is 81.5% and the inhibition at 0.1 µM was determined as 95.4%.

Consider `CN(C)CCc1c[nH]c2ccc(NS(=O)(=O)c3cccc4c(N(C)C)cccc34)cc12` [Example 2], for which the inhibitory constant (Ki) turned out to be 5.3 nM, the inhibition at 0.01 µM is 75.1% and the inhibition at 0.1 µM worked out at 86.3%.

As for `CN(C)CCc1c[nH]c2ccc(N(C)S(=O)(=O)c3ccc4ccccc4c3)cc12` [Example 11, N-(3-(2-(dimethylamino)ethyl)-1H-indol-5-yl)-N-methylnaphthalene-2-sulfonamide], the Ki is 12.3 ± 3.7 nM, the inhibition at 0.01 µM came out at 73.1% and the inhibition at 0.1 µM was 93.1%.

With `COc1cccc2c(S(=O)(=O)Nc3ccc4[nH]cc(CCN(C)C)c4c3)cccc12` [Example 14, N-(3-(2-(dimethylamino)ethyl)-1H-indol-5-yl)-5-methoxynanhthalene-1-sulfonamide], the inhibitory constant (Ki) was 18.6 nM, the inhibition at 0.01 µM came to 59.6% and the inhibition at 0.1 µM came out at 88.1%.

As for `COc1ccc(S(=O)(=O)Nc2ccc3[nH]cc(CCN(C)C)c3c2)c2ccccc12` [Example 20, N-(3-(2-(dimethylamino)ethyl)-1H-indol-5-yl)-4-methoxynaphthalene-1-sulfonamide], the Ki came out at 8.5 ± 1.7 nM, the inhibition at 0.01 µM is 53.3% and the inhibition at 0.1 µM is 81.8%.

For the compound `CN(C)CCc1c[nH]c2ccc(N(C)S(=O)(=O)c3cccc4ccccc34)cc12` [Example 10, N-(3-(2-(dimethylamino)ethyl)-1H-indol-5-yl)-N-methylnaphthalene-1-sulfonamide], the Ki was 9.7 ± 4.5 nM, the inhibition at 0.01 µM was determined as 79.2% and the inhibition at 0.1 µM amounted to 92.7%.

In the case of `CN(C)CCc1c[nH]c2ccc(NS(=O)(=O)c3cccc4cccc(Cl)c34)cc12` [Example 6, 8-chloro-N-(3-(2-(dimethylamino)ethyl)-1H-indol-5-yl)naphthalene-1-sulfonamide], the Ki was 2.1 nM, the inhibition at 0.01 µM stood at 68.4% and the inhibition at 0.1 µM amounted to 88.4%.

Take `COc1cccc2cccc(S(=O)(=O)Nc3ccc4[nH]cc(CCN(C)C)c4c3)c12` [Example 18, N-(3-(2-(dimethylamino)ethyl)-1H-indol-5-yl)-8-methoxynaphthalene-1-sulfonamide]: the Ki is 8.3 nM, the inhibition at 0.01 µM amounted to 69.2% and the inhibition at 0.1 µM is 88.4%.

For the compound `CN(C)CCc1c[nH]c2ccc(NS(=O)(=O)c3cccc4c(O)cccc34)cc12` [Example 15, N-(3-(2-(dimethylamino)ethyl)-1H-indol-5-yl)-5-hydroxynaphthalene-1-sulfonamide], the Ki amounted to 0.5 nM, the inhibition at 0.01 µM was 91.9% and the inhibition at 0.1 µM came to 94.6%.

For `CN(C)CCc1c[nH]c2ccc(NS(=O)(=O)c3ccc4cc(N(C)C)ccc4c3)cc12` [Example 5, 6-(dimethylamino)-N-(3-(2-(dimethylamino)ethyl)-1H-indol-5-yl)naphthalene-2-sulfonamide], the Ki was 11.9 ± 3.3 nM, the inhibition at 0.01 µM turned out to be 69.8% and the inhibition at 0.1 µM worked out at 88.5%.

Regarding `CN(C)CCc1c[nH]c2ccc(NS(=O)(=O)c3cccc4cccc(O)c34)cc12` [Example 19, N-(3-(2-(dimethylamino)ethyl)-1H-indol-5-yl)-8-hydroxynaphthalene-1-sulfonamide], the Ki came out at 24.6 ± 2.1 nM, the inhibition at 0.01 µM is 53.8% and the inhibition at 0.1 µM stood at 85.9%.

As to `COc1ccc2ccc(S(=O)(=O)Nc3ccc4[nH]cc(CCN(C)C)c4c3)cc2c1` [Example 16, N-(3-(2-(dimethylamino)ethyl)-1H-indol-5-yl)-7-methoxynaphthalene-2-sulfonamide], the Ki is 5 ± 1.3 nM, the inhibition at 0.01 µM is 70% and the inhibition at 0.1 µM was 89.3%.

As to `Cn1cc(CCN2CCCC2)c2cc(NS(=O)(=O)c3cccc4ccccc34)ccc21` [Example 9, N-(1-methyl-3-(2-(pyrrolidin-1-yl)ethyl)-1H-indol-5-yl)naphthalene-1-sulfonamide], the Ki turned out to be 42.5 ± 13.9 nM, the inhibition at 0.01 µM was 58.1% and the inhibition at 0.1 µM stood at 86.8%.

As for `CN(C)CCc1c[nH]c2ccc(NS(=O)(=O)c3ccc4ccc(Cl)cc4c3)cc12` [Example 4, 7-chloro-N-(3-(2-(dimethylamino)ethyl)-1H-indol-5-yl)naphthalene-2-sulfonamide], the Ki stood at 3.9 ± 0.4 nM, the inhibition at 0.01 µM worked out at 81.2% and the inhibition at 0.1 µM came to 89.3%.

For the compound `CN(C)CCc1c[nH]c2ccc(N(C)S(=O)(=O)c3ccc4c(Cl)cccc4c3)cc12` [Example 13, 5-chloro-N-(3-(2-(dimethylamino)ethyl)-1H-indol-5-yl)-N-methylnaphthalene-2-sulfonamide], the Ki came to 18.1 ± 2.6 nM, the inhibition at 0.01 µM turned out to be 55.5% and the inhibition at 0.1 µM turned out to be 87.6%.

Regarding `Cc1ccc(S(=O)(=O)Nc2ccc3[nH]cc(CCN(C)C)c3c2)c2ccccc12` [Example 3, N-(3-(2-(dimethylamino)ethyl)-1H-indol-5-yl)-4-methylnanhthalene-1-sulfonamide], the Ki was found to be 9.8 nM, the inhibition at 0.01 µM turned out to be 80.3% and the inhibition at 0.1 µM amounted to 88.5%.

Take `CN(C)CCc1c[nH]c2ccc(NS(=O)(=O)c3ccc4cc(Cl)ccc4c3)cc12` [Example 1, 6-chloro-N-(3-(2-(dimethylamino)ethyl)-1H-indol-5-yl)naphthalene-2-sulfonamide]: the inhibition at 0.01 µM turned out to be 73.9% and the inhibition at 0.1 µM came to 84.4%.

For `CN(C)CCc1c[nH]c2ccc(NS(=O)(=O)c3ccc4ccc(O)cc4c3)cc12` [Example 17, N-(3-(2-(dimethylamino)ethyl)-1 H-indol-5-yl)-7-hydroxynaphthalene-2-sulfonamide], the inhibition constant Ki amounted to 6.9 ± 0.2 nM, the inhibition at 0.01 µM is 69.9% and the inhibition at 0.1 µM is 91.5%.

With `CN(C)CCc1cn(C)c2ccc(NS(=O)(=O)c3ccc4c(Cl)cccc4c3)cc12` [Example 8, 5-chloro-N-(3-(2-(dimethylamino)ethyl)-1-methyl-1H-indol-5-yl)naphthalene-2-sulfonamide], the Ki was determined as 13.4 ± 0.9 nM, the inhibition at 0.01 µM came to 64.5% and the inhibition at 0.1 µM worked out at 93.4%.
